One experiment has as its target CDK1 (p34 cdc2)/cyclin B. The experiment in a line: CDK inhibition assay (histone H1 kinase), CDK1. Type of experiment: biochemical, starfish (Marthasterias glacialis). As to conditions: for IC50: CDK1; for IC50 / effect of side chain at N9 or N7, or halo at C2, on activity: Table 1; for effect of side chain at N9 or N7, or halo at C2, on activity: in words; for % inhibition CDK1: at 100 μM. As to the method: (§1) By way of example, however, a typical protocol is summarised below.
Histone H1 (type III-S (Sigma) 4° C.) 5 mg/ml in buffer C.
[^32 P]ATP […]: Make up using (multiples of) the following proportions:
DMSO cannot exceed 1% in the assay mixture. Inhibitors are added at 1/10 final assay volume and 10×final strength. DMSO stocks must therefore be diluted to 10×final desired concentration in ≤10% DMSO, ≥90% buffer C.
Start reaction in each tube at 30 second intervals by adding
5 ml [^32 P]ATP vortexing and placing in rack in waterbath at 30° C.
Terminate reaction after 10 min at 30 second intervals in tubes in same order by removing
25 ml reaction mix and spotting onto appropriately labelled filter, allowing to dry for 20-30 seconds and transferring to stirring 1% phosphoric acid.
Blank incubation is performed as above but without histone (add […] buffer C instead) Washing blank is […] ATP added directly to filter.

A further experiment addresses CDK2 (Homo sapiens, UniProt P24941). The experiment is described as follows: CDK inhibition assay, CDK2. Type of experiment: biochemical.
From the text: Apart from reference compounds, the compounds listed are accompanied by an NU reference or identification code number.
as §1

Setting [1] is: read-out: % inhibition CDK2, at 100 μM.
Setting [2] is: at 100 μM, read-out: % inhibition CDK2.

A word on the IC50: it is the concentration needed to halve the response being measured. A word on the inhibition: it is how much of the control response was suppressed.

Read-outs that look alike come from different tables or passages of the source.

Molecule `Nc1nc(OCC2=CCCCC2)c2nc[nH]c2n1` [NU2076, O^6-(1'-Cyclohexenyl)methylguanine] displayed a 50% inhibitory concentration (IC50) at CDK1 (p34 cdc2)/cyclin B of 8 µM.
As for `C=CCOc1nc(N)nc2c1ncn2Cc1ccccc1` [NU2038, O^6 -Allyl-N^9 -benzylguanine], on CDK1 (p34 cdc2)/cyclin B, the IC50 is greater than 1000 µM and the “effect of side chain at N9 or N7, or halo at C2, on activity” value (shortened to “effect of side chain at N9 or N7”) is reported as “activity drastically diminishes”.
Turning to `CCCCCCCOc1nc(N)nc2nc[nH]c12` [NU2064, 2-amino-6-heptyloxypurine], half-maximal inhibition on CDK1 (p34 cdc2)/cyclin B (IC50) was put at 31 µM.
Consider `c1nc(OCC2CCCCC2)c2[nH]cnc2n1` [NU2017, 6-cyclohexylmethoxypurine], for which the IC50 at CDK2 (CDK2, Table 1, read-out: IC50 CDK2) was 15.5 µM; at CDK1 (p34 cdc2)/cyclin B it was 16 µM. The inhibition at 100 µM at CDK2 (setting [1]) was 61 ± 2%.
`C=CCOc1nc(N(C)C)nc2nc[nH]c12` [NU2048, 2-(N,N-dimethyl)amino-6-allyloxypurine]: on CDK1 (p34 cdc2)/cyclin B, the IC50 came out at 22 µM.
On the same count and under the same terms, the value for `CCOC(C)(COc1nc(N)nc2[nH]cnc12)OCC` [NU2032, 2-amino-6-(2,2-diethoxy) propoxypurine] was greater than 100 µM.
For `Nc1nc(N)c(N)c(OCc2ccccc2)n1` [NU6040, 2,5,6-triamino-4-(benzylmethoxy) pyrimidine], on CDK2 (setting [2]), the inhibition at 100 µM turned out to be 6 ± 10%.
Regarding `CNc1cc(Cl)nc(N)n1` [NU6042, 2-amino-4-chloro-6-methylamino pyrimidine], at CDK2 (setting [2]), the inhibition at 100 µM came out at 14 ± 24%.
The molecule `C=CCOc1ncnc2nc[nH]c12` [NU2013, 6-Allyloxypurine] had an IC50 against CDK1 (p34 cdc2)/cyclin B of 110 µM.
The same measure, in the same setting: the value for `C=C(COc1nc(N)nc2[nH]cnc12)C(C)C` [NU2055, O^6-(2-Isopropylallyl)guanine] was 13 µM; that for `CCOc1nc(N)nc2nc[nH]c12` [NU2046, 2-amino-6-ethoxypurine] was 100 µM.
Same read-out and setting: to `Nc1nc(OCCc2ccccc2)c2nc[nH]c2n1` [NU2041, O^6-(2-Phenylethyl)guanine] belongs 100 µM.
On the same count and under the same terms, the value for `c1ccc(COc2ncnc3nc[nH]c23)cc1` [NU2002, 6-Benzyloxypurine] was 51 µM.
Consider `Nc1nc(OCc2cccnc2)c2nc[nH]c2n1` [NU6029, 2-Amino-6-(3'-pyridyl)methyloxypurine], for which, on CDK2 (setting [2]), the inhibition at 100 µM came to 43 ± 4%. In addition, the “% inhibition CDK1” value in the experiment on CDK1 (p34 cdc2)/cyclin B stood at 56 ± 4%.
Consider `Nc1nc(N)c(N)c(OCC2CCCCC2)n1` [NU6035, 2,5,6-triamino-4(cyclohexylmethoxy)-pyrimidine], for which the inhibition at 100 µM at CDK2 (setting [1]) was determined as 54 ± 8%. Further, the “% inhibition CDK1” value with CDK1 (p34 cdc2)/cyclin B came to 40 ± 4%.
`CCCOc1nc(N)nc2nc[nH]c12` [NU2045, 2-amino-6-propoxypurine] registered an IC50 against CDK1 (p34 cdc2)/cyclin B of 50 µM.
As for `CC1(C)OCC(COc2nc(N)nc3[nH]cnc23)O1` (centres unmarked) [NU6021, O^6-(2,2-Dimethyl-1,3-dioxolane-4-methoxy)guanine], the inhibition at 100 µM on CDK2 (setting [1]) was found to be 35 ± 6%. Moreover, the “% inhibition CDK1” value in the experiment on CDK1 (p34 cdc2)/cyclin B is reported as 36 ± 9%.
Regarding `C#CCOc1nc(N)nc2[nH]cnc12` [NU2031, O^6 -Propargylguanine], half-maximal inhibition at CDK1 (p34 cdc2)/cyclin B (IC50) was put at 60 µM.
In the case of `CC1(C)OC[C@H](COc2nc(N)nc3[nH]cnc23)O1` [NU6025, 2-amino-6-[(S)-2',2'-dimethyl-1',3'-dioxolane-5'-methyl]oxypurine], the inhibition at 100 µM on CDK2 (setting [1]) is 28 ± 4%. In the experiment on CDK1 (p34 cdc2)/cyclin B, the “% inhibition CDK1” value came to 34 ± 2%.
With `COC(COc1nc(N)nc2[nH]cnc12)(OC)c1ccccc1` [NU2081, 2-amino-6-(2,2-dimethoxy)-2-phenylethyloxypurine], the IC50 against CDK1 (p34 cdc2)/cyclin B was greater than 100 µM.
Regarding `C=CCOc1nc(N)nc2ncn(CC=C)c12` [NU2037, N^7,O^6 -Diallylguanine], at CDK1 (p34 cdc2)/cyclin B, the IC50 is greater than 1000 µM and the “effect of side chain at N9 or N7” value is “activity drastically diminishes”.
With `Nc1nc(OCC(=O)c2ccccc2)c2nc[nH]c2n1` [NU2033, O^6-(2-Oxo-2-phenylethyl)guanine], the midpoint of inhibition on CDK1 (p34 cdc2)/cyclin B, the IC50, lay at 100 µM.
At CDK1 (p34 cdc2)/cyclin B, `Nc1nc(OCC(O)CO)c2nc[nH]c2n1` (centres unmarked) [NU2040, 2-amino-6-(2,3-dihydroxy) propoxypurine] came in with an IC50 greater than 100 µM.
Turning to `Nc1nc(OCC2COC3(CCCCC3)O2)c2nc[nH]c2n1` (centres unmarked) [NU6022, O^6-(1,4-Dioxaspiro[4.5]decane-2-methoxy)guanine], on CDK2 (setting [1]), the inhibition at 100 µM worked out at 27 ± 4%. Further, the “% inhibition CDK1” value with CDK1 (p34 cdc2)/cyclin B was determined as 26 ± 6%.
On CDK1 (p34 cdc2)/cyclin B, `COc1nc(N)nc2nc[nH]c12` [NU2004, 2-amino-6-methoxypurine] showed an IC50 of 200 µM.
At CDK1 (p34 cdc2)/cyclin B, `COCC(COc1nc(N)nc2nc[nH]c12)OC` (centres unmarked) [NU2044, 2-amino-6-(2,3-dimethoy)propoxypurine] had an IC50 greater than 100 µM.
The same measure, in the same setting: the value for `CCCCOc1nc(N)nc2nc[nH]c12` [NU2052, 2-amino-6-n-butoxypurine] was 30 µM.
Turning to `CC1(C)OC[C@@H](COc2nc(N)nc3[nH]cnc23)O1` [NU6024, 2-amino-6-[(R)-2',2'-dimethyl-1',3'-dioxolane-5'-methyl]oxypurine], the inhibition at 100 µM on CDK2 (setting [2]) stood at 38 ± 3%. Besides, the “% inhibition CDK1” value in the experiment with CDK1 (p34 cdc2)/cyclin B worked out at 50 ± 1%.
On CDK1 (p34 cdc2)/cyclin B, `C=C(CC)COc1nc(N)nc2[nH]cnc12` [NU2054, O^6-(2-Ethylallyl)guanine] came in with an IC50 of 20 µM.
As for `CC(C)C1(COc2nc(N)nc3[nH]cnc23)OCCO1` [NU2057, O^6-(3-Methyl-2-oxobutyl)guanine ethylene acetal], the IC50 against CDK1 (p34 cdc2)/cyclin B stood at 105 µM.
On the same count and under the same terms, the value for `CCC(COc1nc(N)nc2[nH]cnc12)(OC)OC` [NU2050, 2-amino-6-(2,2-dimethoxy) butyloxypurine] was greater than 100 µM.
The same measure, in the same setting: to `Nc1nc(OCC2=CCCC2)c2nc[nH]c2n1` [NU2074, O^6-(1'-Cyclopentenyl)methylguanine] belongs 7 µM.
Take `Nc1cc(OCC2CC=CCC2)nc(N)n1` (centres unmarked) [NU6046]: the inhibition at 100 µM on CDK2 (setting [1]) was 8 ± 1%. Further, the “% inhibition CDK1” value in the experiment with CDK1 (p34 cdc2)/cyclin B came out at 16 ± 13%.
Take `C=CCOc1nc(Cl)nc2nc[nH]c12` [NU2051, 6-allyloxy-2-chloropurine]: at CDK1 (p34 cdc2)/cyclin B, it took 400 µM to reach half-maximal inhibition (IC50) and the “effect of side chain at N9 or N7” value is listed as “activity drastically diminishes”.
Take `C=CCCCCOc1nc(N)nc2[nH]cnc12` [NU2061, O^6-(5'-Hexenyl)guanine]: half-maximal inhibition against CDK1 (p34 cdc2)/cyclin B (IC50) was put at 12 µM.
Turning to `Nc1nc(N)c(N=O)c(OCc2ccccc2)n1` [NU6039, 2,6-diamino-4-(benzylmethoxy) 5-nitrosopyrimidine], at CDK2 (setting [1]), the inhibition at 100 µM came out at 51 ± 2%. Besides, the “% inhibition CDK1” value in the experiment on CDK1 (p34 cdc2)/cyclin B was found to be 54 ± 9%.
Molecule `c1ccc(CCOc2ncnc3nc[nH]c23)cc1` [NU2023, 6-(2-Phenylethyloxy)purine] had an IC50 at CDK1 (p34 cdc2)/cyclin B of 130 µM.
On the same count and under the same terms, to `CC/C=C/CCOc1nc(N)nc2[nH]cnc12` [NU2067, O^6-(trans-3'-Hexenyl)guanine] belongs 38 µM.
Still for that read-out and setting: to `Nc1nc(OCc2ccco2)c2nc[nH]c2n1` [2-amino-6-(2-furanyl)-methyloxypurine] belongs 75 µM; to `C=C(C)COc1nc(N)nc2[nH]cnc12` [NU2034, O^6-(2-Methylallyl)guanine], 32 µM.
`CC(=O)COc1nc(N)nc2[nH]cnc12` [NU2035, O^6-(2-Oxopropyl)guanine] gave an IC50 at CDK1 (p34 cdc2)/cyclin B of 100 µM.
Still for that read-out and setting: the value for `c1nc(OCC2CCCCO2)c2[nH]cnc2n1` (centres unmarked) [NU2014, 6-(2-tetrahydropyranyl-methyloxy)purine] was greater than 100 µM.
With `Nc1cc(OCc2ccccc2)nc(N)n1` [NU6038], on CDK2 (setting [2]), the inhibition at 100 µM is 0%. In the experiment on CDK1 (p34 cdc2)/cyclin B, the “% inhibition CDK1” value stood at 3 ± 3%.
As to `C=CCOc1nc(N)nc2c1ncn2CC=C` [NU2036, N^9,O^6 -Diallylguanine], at CDK1 (p34 cdc2)/cyclin B, the half-maximal inhibitory concentration (IC50) was greater than 1000 µM and the “effect of side chain at N9 or N7” value is on record as “activity drastically diminishes”.

Source of the values: patent US6303618A, “Cyclin dependent kinase inhibiting purine derivatives” (priority 1997, dated 2001).
